In a melting point compilation (Tetko et al.; mined from patent text by program, amines drawn as free bases though some values may be those of a salt) one finds melting point data, which are given here for 92 compounds.

Bounds are passed on as bounds.

Compound `CCCCN1C(N)=NC(Oc2cccc(C)c2)=NS1(=O)=O` showed a melting point of 169 to 171 °C.

In the case of `COC(CC(=O)c1cccc(Br)c1)C(=O)O` (configuration not stated), the melting point was in the range of 82.5 to 83.5 °C.

On to `OCc1ccc(-c2c3ccccc3nn2Cc2ccccc2)cc1`, for which the melting point was in the range of 148 to 149 °C.

The compound `CCCC1=C(C#N)C(c2ccccc2Cl)c2cn(C(=O)Nc3ccccc3)nc2N1` (configuration not stated) came in with a melting point of 167 to 171 °C.

The compound `COC(=O)C(C)c1ccc(OCCNC(=O)C2Cc3ccccc3N2S(=O)(=O)c2ccc(-c3cccc(C(F)(F)F)c3)cc2)cc1` (configuration not stated) registered a melting point of 71 to 74 °C.

The compound `O=C(C[C@H]1CCCO1)N[C@H]1CC[C@H](CCN2CCC(c3cccc4c3CCO4)CC2)CC1` gave a melting point of 192 °C.

Turning to `Clc1ccc(-c2ncsc2Cn2cncn2)c(Cl)c1`, the melting point is 120 to 123 °C.

`C(=C(c1ccccc1)c1ccccc1)c1ccc2c(c1)Cc1ccccc1-2` registered a melting point of 136 to 138 °C.

`Fc1ccc(N2CCN(CCCc3cnc4n3CCCC4)CC2)cc1` came in with a melting point of 106 to 108 °C.

`ONC=Nc1ccc(N2CCSCC2)c(Cl)c1` came in with a melting point of 137 to 138 °C.

`COc1ccc2c(=O)c(-c3ccccc3)coc2c1` showed a melting point of 156 to 158 °C.

`CSCC[C@H](NC(=O)OC(C)(C)C)C(=O)Oc1ccc(NC(C)=O)cc1` gave a melting point of 225 to 228 °C.

For the compound `c1ccc(-c2nc(COc3cccc(CCCn4ccnc4)c3)cs2)cc1`, the melting point fell in the range of 63 to 64 °C.

With `NC1CCc2[nH]c3ccccc3c2C1` (configuration not stated), the melting point was 160 to 166 °C.

Take `Clc1ccc(-c2cnccn2)c(Cl)c1`: the melting point lay in the range of 131 to 132 °C.

`C[C@H]1O[C@@H](C(Cl)(Cl)Cl)OC(=O)[C@@H]1C` showed a melting point of 128 to 130 °C.

In turn, `CC(C)Cn1c(=O)c(-c2c(Cl)cccc2Cl)cc2cnc(N)nc21` had a melting point of 193 to 195 °C.

Compound `CSc1cncc(O)c1` registered a melting point of 179 °C.

`N#CCc1cccc2c(=O)cc(C3(Br)CCCCC3)oc12` showed a melting point of 144 to 145 °C.

With `CC(=O)OC1C(OC(=O)C=Cc2ccccc2)C=C(C)C(=O)CC1(C)C` (configuration not stated), the melting point was in the range of 138 to 139 °C.

The compound `CCOC(=O)c1c2ccc(Cl)cc2c(-c2ccccc2)n1CCN` returned a melting point of 84 to 86 °C.

In turn, `Cn1cncc1C(O)(c1ccc(Cl)cc1)c1ccc2c(c1)c(CCc1cccc(Cl)c1)cc(=O)n2C` (configuration not stated) gave a melting point of 190 °C.

In turn, `COc1cc(CN[C@@H](C(=O)N[C@H](C(=O)NCc2ccc(OC)cc2O)C(C)C)[C@H](O)[C@H](Cc2ccccc2)NC(=O)OC(C)(C)C)cc(OC)c1` came in with a melting point of 138 °C.

On to `COc1cc(C=CC=O)ccc1OC(C)=O`, for which the melting point was 83 to 86 °C.

Take `Nc1ccc(C(=O)O)cc1NCc1ccccc1Cl`: the melting point was 176 to 177 °C.

In turn, `CCCCOc1cc(/C=C(\OCC)C(=O)O)ccc1OCCc1ccc(OS(=O)(=O)CCCC)c(Cl)c1` showed a melting point of 80 °C.

Compound `CC(=O)N(C)c1ccc2sc3ccc(Br)cc3c(=O)c2c1` gave a melting point of 240 to 241 °C.

The compound `Cc1c(Nc2c(C#N)cnc3scc(CO)c23)ccc2[nH]ccc12` yielded a melting point of 230 °C.

As to `CC(C)(CO)NCC(=O)N1C[C@@H](F)C[C@H]1C#N`, the melting point fell in the range of 146 to 148 °C.

Take `CC(=O)N1CCN(c2ccc(N=CNc3cc(Cl)cc(C(=Cc4ccccc4Cl)C(N)=O)c3)cc2)CC1`: the melting point was in the range of 259 to 260 °C.

`COc1cc(CCCCCC2OC(=O)NC2=O)ccc1OCc1nc(-c2ccccc2)oc1C` (configuration not stated): the melting point lay within 114 to 115 °C.

`O=c1nc(-c2cccc(S(=O)CCCc3ccccc3)n2)sc2ccccc12` (configuration not stated) yielded a melting point of 164 to 166 °C.

Turning to `COc1cc(C(=O)CCc2ccccc2)c2c(c1OC)C(=O)CC2`, the melting point is 144 to 146 °C.

Compound `CC(C)OC(=O)c1ncn2c1CN(C)C(=O)c1ccccc1-2` showed a melting point of 190 to 192 °C.

The compound `Oc1cccc2ccc(N3CCN(c4nc5ccc(C(F)(F)F)cc5[nH]4)CC3)nc12` showed a melting point of 191 to 193 °C.

On to `CN(C)c1nc(Br)cnc1N`, for which the melting point is 145 °C.

As to `COCC1c2ccccc2CCN1c1nc(Nc2ccc(F)cc2)nc(C)c1C` (configuration not stated), the melting point is 193 to 195 °C.

Take `COc1cc2c(-c3cc4cccnc4[nH]3)cn(C)c2cc1OC(C)C`: the melting point amounted to 216 °C.

Turning to `O=C(c1ccccc1)c1ncc2n1CCC2C(=O)O` (configuration not stated), the melting point fell in the range of 232 to 233 °C.

The compound `O=S(=O)(CC1(c2ccccc2)CO1)c1ccccc1` (configuration not stated) returned a melting point of 89 °C.

In turn, `CCCCCCNC(=O)OC1CCN(C(=O)Oc2ccc(Oc3ccccc3)cc2)CC1` displayed a melting point of 77 to 82 °C.

Consider `CC(=O)OC1CC2(C)C(=O)CCC2C2CCC3=CC(=O)C=CC3(C)C12F` (configuration not stated), for which the melting point was in the range of 177 to 178 °C.

On to `COC(=O)Cc1cn(Cc2ccccc2)nc1O`, for which the melting point was in the range of 118 to 119 °C.

Consider `CC(=O)NCC1CN(c2ccc(N3CCN(C(=O)COC(=O)CO)CC3)c(F)c2)C(=O)O1` (configuration not stated), for which the melting point is 105 to 107 °C.

`O=S1(=O)CCCN1CCc1ccncc1`: the melting point was found to be 70 °C.

Regarding `COCCN(CCOC)CC1=Cc2ccsc2S(=O)(=O)N1Cc1ccc(OC)cc1`, the melting point lay in the range of 75 to 77 °C.

On to `O=C(Cc1cccc(Br)c1)Nc1cccc(C(=O)NCCO)c1`, for which the melting point turned out to be 202 °C.

Regarding `N#CCN1CCC(Nc2nc3ccccc3n2Cc2ccnc3ccccc23)CC1`, the melting point worked out at 190 °C.

`Cc1ccccc1C(Oc1cc(OCc2ccc3c(c2)OCO3)ccc1C#N)C(=O)O` (racemic) yielded a melting point of 52 to 56 °C.

`CCCN(CCC)C(Cc1cccc2[nH]cnc12)C(=O)OCC` (configuration not stated) displayed a melting point of 78 to 80 °C.

`CN(C)c1nc(N)nc2nc[nH]c12` registered a melting point of 254 to 256 °C.

The compound `Nc1cccc(C=C2NC(=O)NC2=O)c1` registered a melting point of 280 to 284 °C.

On to `COC(=O)Cc1n[nH]c(C)c1[N+](=O)[O-]`, for which the melting point fell in the range of 132 to 133 °C.

Compound `CON=C(C(C)=NN=Cc1ccccc1N(OC)C(=O)OC)c1ccc(F)cc1` displayed a melting point of 88 to 90 °C.

Take `Nc1c(Cl)cccc1CO`: the melting point was in the range of 56 to 68 °C.

As for `CC(C)(C)c1cc(C2SC(CC(=O)O)C(=O)N2CCCO)cc(C(C)(C)C)c1O` (configuration not stated), the melting point was in the range of 227 to 228 °C.

In turn, `CN1C2CCC1CN(C(=O)c1ccc(-c3ccc(N)cc3)o1)C2` came in with a melting point of 190 to 191 °C.

On to `CCn1nc(Cc2ccc(N)cc2)oc1=O`, for which the melting point was in the range of 88 to 89 °C.

Consider `CCNC(=O)NCCCN1C(=Nc2ccc3c(c2)OCO3)CSC1c1ccccc1OC` (configuration not stated), for which the melting point fell in the range of 134 to 136 °C.

Consider `CC1CCn2c(nc(-c3ccncn3)cc2=O)N1` (configuration not stated), for which the melting point lay within 199 to 201 °C.

The compound `CCOC(=O)c1cccn2cc(C(Cl)Cl)nc12` showed a melting point of 108 to 110 °C.

`ON=C(Cc1ccccc1)c1ccccc1` displayed a melting point of 94 to 96 °C.

On to `CC(C)NC1=NS(=O)(=O)c2ccc(S(C)(=O)=O)cc2N1`, for which the melting point is greater than 300 °C.

As for `CN1NC(Oc2cc(F)ccc2[N+](=O)[O-])=CC1C(F)(F)F` (configuration not stated), the melting point was in the range of 68 to 70 °C.

The compound `COc1cc2cc(C#N)c(N)cc2cc1OCc1ccccc1` displayed a melting point of 241 to 243 °C.

In turn, `Nc1nnc2c3c(c(N4CCCCC4)nn12)CCCC3` had a melting point of 230 to 232 °C.

In turn, `CC(C)CCn1c(CN2C(=O)N(C3CC3)Cc3ccccc32)nc2cc(CN)ccc21` displayed a melting point of 113 °C.

In turn, `COc1ccc2nc(NC(=O)C(CC3CCCC3)c3ccc(S(=O)(=O)NCc4cccnc4)cc3)sc2n1` (configuration not stated) had a melting point of 227 to 229 °C.

With `COc1ccc(C=C2NC(=O)NC2=O)cc1OC`, the melting point lay within 153 to 158 °C.

`CC(C)(COc1ccc(O)c(C(N)=O)c1)NCC(O)c1ccccc1` (configuration not stated) showed a melting point of 121 to 123 °C.

`Nc1cc(C(=O)NNC(=O)Cc2cccc(O)c2)ccc1O`: the melting point was in the range of 264 to 265 °C.

With `COc1cccc(OC)c1C1(O)C(=O)Nc2ccc(Cl)cc21` (configuration not stated), the melting point came to 182 °C.

Take `COc1ccc(C2(C#Cc3cccc(NC(C)=O)c3)CCC(=O)CC2)cc1OC1CCCC1`: the melting point lay within 63 to 64 °C.

`O=C(CCC(=O)N1CCC(c2ccc(Cl)cc2)CC1)c1ccc2c(c1)CCN(Cc1ccccc1)CC2` gave a melting point of 133 to 134 °C.

Consider `CN(C)CCCOc1cc(F)c(-c2c(Cl)nc(-n3ccnc3)nc2NCC(F)(F)F)c(F)c1`, for which the melting point fell in the range of 47 to 49 °C.

In turn, `CC(C)(CCCc1cccc2cncn12)CC(=O)O` yielded a melting point of 124 to 129 °C.

Take `CC(=O)N1N=C(C=Cc2ccc([N+](=O)[O-])cc2)c2cc3c(cc2CC1C)OCO3` (configuration not stated): the melting point lay within 188 to 190 °C.

For `C=C(C)C(=O)NCC(C)OC(=O)C(Br)(Br)Br` (configuration not stated), the melting point is 104 to 105 °C.

As for `CCC(=O)N(C)c1cccc(-c2ccnc3c(C(=O)c4ccccc4)cnn23)c1`, the melting point is 154 to 156 °C.

As to `O=C(Nc1cc(Cl)cc(Cl)c1)c1cc(Br)ccc1O`, the melting point lay in the range of 243 to 244 °C.

Compound `CCCCCCC/C=C/C(=O)NCC` displayed a melting point of 38 to 40 °C.

The compound `Cc1cc(Nc2c(C#N)cnc3cc(-c4csc(C5OCCO5)c4)ccc23)ccc1OCc1ccccn1` showed a melting point of 194 to 196 °C.

With `FC(F)(F)c1ccc(-c2cc(C(F)(F)F)n3ncc(-c4ccncc4)c3n2)cc1`, the melting point worked out at 261 °C.

Take `Cc1ccc2c(c1C)OCC2c1ccc(C(C)C)cc1` (configuration not stated): the melting point was in the range of 50 to 51 °C.

As to `CNC(=O)[C@@H](C[C@H](O)[C@H](CC1CCCCC1)NC(=O)OC(C)(C)C)C(C)C`, the melting point lay in the range of 154 to 157 °C.

The compound `O=C(NC[C@H]1O[C@H]1c1ccccc1)c1ccc(NC(=O)C(F)(F)F)cc1` (racemic) showed a melting point of 190 °C.

In turn, `Nc1ccc(F)c(CO)c1` registered a melting point of 80 to 84 °C.

`CC1(C)NCC(O)(c2ccccc2)CN1` yielded a melting point of 108 °C.

For `NC(=O)c1cn(-c2ccccn2)nc1-c1ccc([N+](=O)[O-])o1`, the melting point amounted to 250 °C.

Take `N=C(N)Nc1nc(-c2cccc(N)c2)cs1`: the melting point lay in the range of 180 to 182 °C.

Compound `COc1ccccc1CC(C)NCC(O)c1cccc(Cl)c1` (configuration not stated) yielded a melting point of 85 to 87 °C.

As for `O=c1cc(C(F)(F)F)cc(-c2ccc(C(F)(F)F)cc2)[nH]1`, the melting point lay within 203 to 204 °C.
